Consider eleven compounds from PubChem BioAssay (NCI).

Some test systems named below: NCI-H226 lung; SF-295 CNS; MDA-MB-231 breast; HOP-62 NSCLC; SF-268 CNS; KM12 colon; HL-60(TB) leukemia; HT29 colon.
What all share (assay): NCI anticancer screen, dose series, 48 h

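All cell lines were grown in 96-well plates and treated with compound for 48 hours. Abbreviation: GI50, concentration required for 50% inhibition of growth. TGI: concentration producing complete growth inhibition.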

Take `COc1ccc(C(CC(=O)c2ccc3c(c2)OCO3)c2c(O)c3ccccc3oc2=O)cc1OC` (centres undefined): the TGI with NCI-H226 lung, in the assay with SF-295 CNS, with MDA-MB-231 breast, in the assay on HOP-62 NSCLC, in the assay on SF-268 CNS and in the assay on KM12 colon was over 100 µM throughout. The TGI with HL-60(TB) leukemia and in the assay with HT29 colon was over 100 µM each time.

As for `COC(c1ccc(C(C)(C)C)cc1)(c1ccc(C(C)(C)C)cc1)c1ccc(C(C)(C)C)cc1`, the TGI in the assay on NCI-H226 lung, in the assay with SF-295 CNS, in the assay on MDA-MB-231 breast, in the assay with HOP-62 NSCLC, with SF-268 CNS and in the assay on KM12 colon was over 100 µM throughout. In addition, the TGI in the assay on HL-60(TB) leukemia and with HT29 colon was over 100 µM each time.

As for `O=C(c1ccco1)c1c(C(F)(F)F)n([O-])c2ccc(C(F)(F)F)cc2[n+]1=O`, the GI50 is 0.657 µM with NCI-H226 lung; 0.626 µM in the assay with SF-295 CNS; 0.298 µM in the assay with MDA-MB-231 breast; 1.47 µM in the assay on HOP-62 NSCLC; 0.266 µM with SF-268 CNS; 0.467 µM in the assay on KM12 colon. Besides, the figures for the GI50 with HL-60(TB) leukemia and in the assay on HT29 colon were 0.0696 µM and 0.243 µM, respectively. Besides, the TGI with NCI-H226 lung came out at 1.55 µM; with SF-295 CNS, 1.71 µM; in the assay with MDA-MB-231 breast, 0.768 µM; with HOP-62 NSCLC, 2.95 µM; in the assay with SF-268 CNS, 0.674 µM; with KM12 colon, 0.973 µM. For the same compound, the TGI with HL-60(TB) leukemia stood at 0.31 µM; in the assay on HT29 colon it was 0.674 µM.

As to `COc1cc2c(/C=N\N=C(N)N)c[nH]c2cc1C`, the GI50 in the assay on NCI-H226 lung was 17.1 µM; with SF-295 CNS, 15.4 µM; in the assay on MDA-MB-231 breast, 14.7 µM; in the assay with SF-268 CNS it was 12.5 µM; in the assay with KM12 colon, 14.9 µM; in the assay with HL-60(TB) leukemia, 15.9 µM. Further, the GI50 in the assay with HT29 colon was 18 µM. For the same compound, the TGI is 71.8 µM with NCI-H226 lung; 43.4 µM with SF-295 CNS; 34.1 µM in the assay on MDA-MB-231 breast; 28.7 µM in the assay on SF-268 CNS; 28 µM in the assay on KM12 colon; 29.4 µM in the assay on HL-60(TB) leukemia. The same compound gave a TGI with HT29 colon of 37.1 µM.

Turning to `COC(=O)C1C(O)C(C(=O)OC)C(C)N(C)C1C` (centres undefined), the TGI in the assay with NCI-H226 lung, in the assay on SF-295 CNS, with MDA-MB-231 breast, in the assay with HOP-62 NSCLC, with KM12 colon and in the assay on HL-60(TB) leukemia was over 100 µM each time. The compound also showed a TGI with HT29 colon of over 100 µM.

In the case of `Cc1ccc(OCCOCCOCCOCCOc2ccc(C)n(O)c2=S)c(=S)n1O`, the GI50 in the assay with NCI-H226 lung was under 0.0291 µM; in the assay with SF-295 CNS it was 0.0261 µM; with MDA-MB-231 breast it was 0.114 µM; in the assay on HOP-62 NSCLC, 0.184 µM; with SF-268 CNS it was 0.0482 µM; with KM12 colon, 0.0818 µM. The GI50 was 0.11 µM with HL-60(TB) leukemia and under 0.01 µM in the assay with HT29 colon. Besides, the TGI in the assay on NCI-H226 lung is 12.7 µM; in the assay on SF-295 CNS it was over 100 µM; in the assay on MDA-MB-231 breast it was over 100 µM; in the assay on HOP-62 NSCLC, over 100 µM; in the assay on SF-268 CNS it was over 100 µM; with KM12 colon it was over 100 µM. The TGI with HL-60(TB) leukemia was 5.95 µM; with HT29 colon, over 100 µM.

`C#CCOc1cccc(Nc2ncnc3c(NC(=O)C=C)cccc23)c1`: the GI50 with NCI-H226 lung is 25.5 µM; in the assay on SF-295 CNS, 27.4 µM; in the assay with MDA-MB-231 breast, 20.7 µM; in the assay with HOP-62 NSCLC, 27.8 µM; in the assay on SF-268 CNS, 27.7 µM; in the assay with KM12 colon, 20.3 µM. The GI50 in the assay with HL-60(TB) leukemia is 18.9 µM; in the assay with HT29 colon, 19.3 µM. Also, the TGI in the assay with NCI-H226 lung was 69.1 µM; in the assay with SF-295 CNS, over 100 µM; in the assay on MDA-MB-231 breast, over 100 µM; in the assay with HOP-62 NSCLC, over 100 µM; with SF-268 CNS it was over 100 µM; in the assay with KM12 colon it was over 100 µM. Also, the TGI in the assay with HL-60(TB) leukemia is over 100 µM; in the assay with HT29 colon, 98.8 µM.

On to `CCCc1cc(=O)n2c(C(=O)Nc3ccc(Cl)cc3C)c(C(=O)Nc3ccc(F)cc3)sc2n1`, for which the GI50 was 31.7 µM in the assay on SF-295 CNS; 0.698 µM in the assay on MDA-MB-231 breast; 1.54 µM in the assay with HOP-62 NSCLC; 6.62 µM in the assay with SF-268 CNS; 13.5 µM in the assay with KM12 colon; 1.33 µM in the assay with HL-60(TB) leukemia. The GI50 in the assay on HT29 colon is 12.2 µM. Besides, the TGI in the assay with SF-295 CNS was 131 µM; with MDA-MB-231 breast it was 3.08 µM; with HOP-62 NSCLC it was 3.95 µM; in the assay with SF-268 CNS, 24.9 µM; in the assay on KM12 colon, over 150 µM; with HL-60(TB) leukemia, 23.8 µM. Also, in the assay with HT29 colon, the TGI is over 150 µM.

With `C=CC(=O)N1CN(C(=O)C=C)CN(C(=O)C=C)C1`, the GI50 is 5.87 µM in the assay with NCI-H226 lung; 11.5 µM in the assay on MDA-MB-231 breast; 12.3 µM in the assay with HOP-62 NSCLC; 11 µM in the assay with SF-268 CNS; 18.5 µM in the assay on KM12 colon; 3.37 µM in the assay on HL-60(TB) leukemia. The GI50 with HT29 colon was 3.26 µM. The TGI with NCI-H226 lung is over 100 µM; in the assay with MDA-MB-231 breast it was 35.6 µM; in the assay on HOP-62 NSCLC, 48.1 µM; in the assay with SF-268 CNS, 50.6 µM; in the assay with KM12 colon, 38.6 µM; in the assay with HL-60(TB) leukemia it was 10.3 µM. The TGI in the assay on HT29 colon came to 10.4 µM.

Take `O=C1CCCN1c1ccccc1I(=O)=O`: the GI50 with NCI-H226 lung, in the assay with SF-295 CNS, with MDA-MB-231 breast, with SF-268 CNS, with KM12 colon and in the assay with HL-60(TB) leukemia was over 100 µM throughout. Moreover, in the assay on HT29 colon, the GI50 was over 100 µM. Also, the TGI in the assay with NCI-H226 lung, with SF-295 CNS, in the assay on MDA-MB-231 breast, in the assay with SF-268 CNS, in the assay on KM12 colon and in the assay on HL-60(TB) leukemia was over 100 µM each time. The TGI in the assay on HT29 colon is over 100 µM.

Regarding `CCC1CN2CCc3cc(OC)c(OC)cc3C2CC1CC1c2cc(OC)c(OC)cc2CCN1C(=O)C1CCCN1` (centres undefined), the TGI in the assay on NCI-H226 lung was 96.7 µM; in the assay with SF-295 CNS, over 100 µM; in the assay on HOP-62 NSCLC, 71.2 µM; in the assay on SF-268 CNS it was 65.2 µM; in the assay on KM12 colon, over 100 µM; in the assay on HL-60(TB) leukemia, 43.9 µM. Moreover, the TGI in the assay on HT29 colon was over 100 µM.
